In the assay the test system is Panc2-H7 model. Put plainly: Panc2-H7 model with or without CD8 neutralizing antibody. The class given is in vivo, C57BL/6J male mice. Here is the method: Based on the findings with bis RvE1 Mg-di-lysinate administered in combination with anti-PD1 in two different tumor models (i.e., Panc2-H7 and LLC), daily (QD) and weekly (Q7D) dosing of bis RvE1 Mg-di-lysinate was investigated in the Panc2-H7 model, with and without an antibody that depletes CD8+ T-cells, which play a major role in the antitumor immune response of immune checkpoint inhibitors. A total of thirty (30) C57BL/6J male mice were injected subcutaneously with 1×10e6 living […]. Once tumors reached 220-240 mm^3 in size based on mean tumor volume per cohort, the mice were randomized (n=6 per group) to treatment with vehicle, bis RvE1 Mg-di-lysinate (300 ug/kg, SC, QD or Q7D), with or without CD8 neutralizing antibody (200 ug IP Q3D). All mice were sacrificed on day 20 when the average tumor size of the placebo group exceeded 2,000 mm^3.

Structures are written as SMILES.

For the molecule `CC[C@@H](O)/C=C/C=C\C[C@@H](O)/C=C/C=C/C=C\[C@@H](O)CCCC(=O)O` [bis RvE1 Mg-di-lysinate], for the setting “300 ug/kg SC, mice not receiving the neutralizing antibody”, the “efficacy of weekly (Q7D) relative to daily (QD) dosing” value was “comparable and possibly superior efficacy relative to daily (QD) dosing”. The “tumor volume over time” value (300 ug/kg, SC, Q7D, without CD8 neutralizing antibody, p<0.01 vs placebo and vs same regimen + CD8 depletion) is “significant inhibition compared to placebo control”.

The values are drawn from US11986512B2, “Compositions and methods for cancer therapy” (Thetis Pharmaceuticals LLC, priority 2021, dated 2024).
